From US12371428B2 (Exelixis, Inc., priority 2019, dated 2025)
Read-outs that look alike come from different tables or passages of the source.

Legend:
Type in all cases: cell-based
[1] = target: Met (phospho-Met, HGF-stimulated PC-3 prostate cancer cells) (Homo sapiens (Human), UniProt P08581); experiment: Met autophosphorylation ELISA in PC-3 cells (Example F); details: cellular activity, read-out: c-Met IC50
Protocol: PC-3 prostate cancer cells (ATCC #CRL-1435) were seeded at 4×10^4 cells/well onto 24-well plates (Greiner #662165), in DMEM (Thermo Fisher #11995-040) containing 10% FBS (Thermo Fisher #26140-079), 1% MEM NEAA (Thermo Fisher #11140-050), 1% GlutaMax (Thermo Fisher #35050-061), and 1% Penicillin Streptomycin (Thermo Fisher #15140-122). PC-3 cells were incubated at 37° C., 5% CO2 for 24 h and then starved for 3 h in serum-free medium. Test compounds were serially diluted to produce an 8-point dose curve in fresh serum-free medium to a final concentration of 0.3% DMSO (vehicle) and added to the cells and incubated for 1 h. Cells were then stimulated with 100 ng/mL recombinant human HGF (R&D Systems #294-HG-250) for 10 min, washed with cold PBS, and immediately lysed with […] of cold 1× lysis buffer [20 mM Tris, 137 mM sodium chloride, 2 mM EDTA, 10% glycerol, 1% NP-40 alternative, 1 mM activated sodium orthovanadate, 1 mM PefaBloc SC (Sigma-Aldrich #11429868001), protease/phosphatase inhibitor tablet (Thermo Fisher #A32959)]. Lysates were clarified by centrifugation and 100 μL/well added into the PathScan phospho-Met (panTyr) Sandwich ELISA (Cell Signaling Technology #7333). Assay was performed according to manufacturer's instructions. Positive control wells (100% activity) contained HGF-stimulated, DMSO-treated cell lysates. Negative control wells (0% activity) contained HGF-stimulated, reference inhibitor-treated cell lysates. IC50 values were calculated by nonlinear regression analysis using a 4-parameter logistic curve fit in ActivityBase XE (IDBS).

[2] = target: KDR (phospho-KDR, VEGF165-stimulated HUVEC cells) (Homo sapiens (Human), UniProt P35968); experiment: KDR autophosphorylation ELISA in HUVEC cells (Example G); details: cellular activity
Protocol: Human umbilical vein endothelial cells or HUVEC (Lonza #C2519A) were seeded at 2×10^4 cells/well onto 96-well plates (Corning #3904), in EGM-2 growth medium (Lonza #CC-3162) containing 1% Penicillin Streptomycin (Thermo Fisher #15140-122). HUVEC cells were incubated at 37° C., 5% CO2 for 24 h and then starved for 24 h in serum-free EBM-2 basal medium (Lonza #CC-3156) containing 1% Penicillin Streptomycin. Test compounds were serially diluted to produce an 8-point dose curve in fresh serum-free medium to a final concentration of 0.3% DMSO (vehicle) and added to the cells and incubated for 1 h. Cells were then stimulated with 100 ng/mL recombinant human VEGF165 (R&D Systems #293-VE-500) for 5 min, washed with cold PBS, and immediately lysed with […] of cold 1× lysis buffer [20 mM Tris, 137 mM sodium chloride, 2 mM EDTA, 10% glycerol, 1% NP-40 alternative, 1 mM activated sodium orthovanadate, 1 mM PefaBloc SC (Sigma-Aldrich #11429868001), protease/phosphatase inhibitor tablet (Thermo Fisher #A32959)]. Lysates were collected and 100 μL/well added into the human phospho-KDR DuoSet IC ELISA (R&D Systems #DYC1766-2). Assay was performed according to manufacturer's instructions and sample phospho-KDR concentrations were extrapolated using human phospho-KDR control (R&D Systems #841421) as a standard. Positive control wells (100% activity) contained VEGF165-stimulated, DMSO-treated cell lysates. Negative control wells (0% activity) contained non-stimulated cell lysates. IC50 values were calculated by nonlinear regression analysis using a 4-parameter logistic curve fit in ActivityBase XE (IDBS).

[3] = target: Mer (phospho-Mer, MERTK-transfected 293A cells) (Homo sapiens (Human), UniProt Q12866); experiment: Mer autophosphorylation ELISA in transient transfected 293A cells (Example H); details: cellular activity
Protocol: 293A cells (Thermo Fisher #R70507) were seeded at 1.5×10^6 cells/well onto 100 mm dish (Greiner #664169), in DMEM (Thermo Fisher #11995-040) containing 10% FBS (Thermo Fisher #26140-079), 1% MEM NEAA (Thermo Fisher #11140-050), 1% GlutaMax (Thermo Fisher #35050-061), and 1% Penicillin Streptomycin (Thermo Fisher #15140-122). 293A cells were incubated at 37° C., 5% CO2 for 24 h and then transfected with […] MERTK DNA (Genecopoeia #EX-Z8208-M02) using TransIT LT1 transfection reagent (Mirus-Bio #MIR2305). After 24 h incubation, the transfected 293A cells were seeded at 1×10^5 cells/well onto 96-well plates (Corning #3904) in DMEM growth medium overnight. Test compounds were serially diluted to produce an 8-point dose curve in fresh serum-free medium to a final concentration of 0.3% DMSO (vehicle) and added to the cells and incubated for 1 h. Cells were then immediately lysed with 150 μL of cold 1× lysis buffer [20 mM Tris, 137 mM sodium chloride, 2 mM EDTA, 10% glycerol, 1% NP-40 alternative, 1 mM activated sodium orthovanadate, 1 mM PefaBloc SC (Sigma-Aldrich #11429868001), protease/phosphatase inhibitor tablet (Thermo Fisher #A32959)]. Lysates were clarified by centrifugation and 50 µL/well added in to the human phospho-Mer DuoSet IC ELISA (R&D Systems #DYC2579-2). Assay was performed according to manufacturer's instructions and sample phospho-Mer concentrations were extrapolated using human phospho-Mer control (R&D Systems #841793) as a standard. Positive control wells (100% activity) contained DMSO-treated cell lysates. Negative control wells (0% activity) contained reference inhibitor-treated cell lysates. IC50 values were calculated by nonlinear regression analysis using a 4-parameter logistic curve fit in ActivityBase XE (JDBS).

[4] = Met autophosphorylation ELISA in PC-3 cells
[5] = KDR autophosphorylation ELISA in HUVEC cells
[6] = Mer autophosphorylation ELISA in transient transfected 293A cells

KDR (phospho-KDR, VEGF165-stimulated HUVEC cells), sequence (P35968 20-1356): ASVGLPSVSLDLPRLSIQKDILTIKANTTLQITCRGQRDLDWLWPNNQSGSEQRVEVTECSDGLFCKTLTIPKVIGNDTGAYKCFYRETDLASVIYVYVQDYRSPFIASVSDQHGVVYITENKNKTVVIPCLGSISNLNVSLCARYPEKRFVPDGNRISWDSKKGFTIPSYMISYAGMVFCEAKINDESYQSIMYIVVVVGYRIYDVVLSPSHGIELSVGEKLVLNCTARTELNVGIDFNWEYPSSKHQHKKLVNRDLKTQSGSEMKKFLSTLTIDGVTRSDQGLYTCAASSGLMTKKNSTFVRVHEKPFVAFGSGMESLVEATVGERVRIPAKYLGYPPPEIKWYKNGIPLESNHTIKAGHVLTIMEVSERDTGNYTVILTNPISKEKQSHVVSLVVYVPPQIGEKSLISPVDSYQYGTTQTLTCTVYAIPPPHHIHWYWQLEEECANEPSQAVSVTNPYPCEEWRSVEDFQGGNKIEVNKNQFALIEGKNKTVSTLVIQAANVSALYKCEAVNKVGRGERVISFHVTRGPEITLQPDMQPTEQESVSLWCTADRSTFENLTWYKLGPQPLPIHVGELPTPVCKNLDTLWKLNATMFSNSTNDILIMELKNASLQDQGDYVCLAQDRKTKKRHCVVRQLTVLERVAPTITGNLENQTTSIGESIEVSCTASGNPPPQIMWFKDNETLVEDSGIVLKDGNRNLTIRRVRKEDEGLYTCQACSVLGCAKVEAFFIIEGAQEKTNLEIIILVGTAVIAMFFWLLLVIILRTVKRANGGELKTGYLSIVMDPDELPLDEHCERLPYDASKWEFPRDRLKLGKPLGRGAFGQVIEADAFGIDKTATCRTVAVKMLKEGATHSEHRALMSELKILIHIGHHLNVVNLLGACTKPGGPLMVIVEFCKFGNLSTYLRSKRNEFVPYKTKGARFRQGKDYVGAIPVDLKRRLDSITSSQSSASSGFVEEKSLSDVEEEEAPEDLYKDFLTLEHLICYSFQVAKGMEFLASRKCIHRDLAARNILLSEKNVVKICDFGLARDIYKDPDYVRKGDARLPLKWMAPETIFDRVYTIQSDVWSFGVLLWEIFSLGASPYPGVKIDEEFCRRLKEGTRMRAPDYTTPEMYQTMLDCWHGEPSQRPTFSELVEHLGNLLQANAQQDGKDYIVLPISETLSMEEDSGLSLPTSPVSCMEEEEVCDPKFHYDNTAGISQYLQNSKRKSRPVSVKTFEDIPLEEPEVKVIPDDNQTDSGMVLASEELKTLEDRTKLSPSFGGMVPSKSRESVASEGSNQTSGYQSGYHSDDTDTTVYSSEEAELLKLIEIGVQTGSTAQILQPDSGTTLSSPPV
Mer (phospho-Mer, MERTK-transfected 293A cells), sequence (Q12866 21-999): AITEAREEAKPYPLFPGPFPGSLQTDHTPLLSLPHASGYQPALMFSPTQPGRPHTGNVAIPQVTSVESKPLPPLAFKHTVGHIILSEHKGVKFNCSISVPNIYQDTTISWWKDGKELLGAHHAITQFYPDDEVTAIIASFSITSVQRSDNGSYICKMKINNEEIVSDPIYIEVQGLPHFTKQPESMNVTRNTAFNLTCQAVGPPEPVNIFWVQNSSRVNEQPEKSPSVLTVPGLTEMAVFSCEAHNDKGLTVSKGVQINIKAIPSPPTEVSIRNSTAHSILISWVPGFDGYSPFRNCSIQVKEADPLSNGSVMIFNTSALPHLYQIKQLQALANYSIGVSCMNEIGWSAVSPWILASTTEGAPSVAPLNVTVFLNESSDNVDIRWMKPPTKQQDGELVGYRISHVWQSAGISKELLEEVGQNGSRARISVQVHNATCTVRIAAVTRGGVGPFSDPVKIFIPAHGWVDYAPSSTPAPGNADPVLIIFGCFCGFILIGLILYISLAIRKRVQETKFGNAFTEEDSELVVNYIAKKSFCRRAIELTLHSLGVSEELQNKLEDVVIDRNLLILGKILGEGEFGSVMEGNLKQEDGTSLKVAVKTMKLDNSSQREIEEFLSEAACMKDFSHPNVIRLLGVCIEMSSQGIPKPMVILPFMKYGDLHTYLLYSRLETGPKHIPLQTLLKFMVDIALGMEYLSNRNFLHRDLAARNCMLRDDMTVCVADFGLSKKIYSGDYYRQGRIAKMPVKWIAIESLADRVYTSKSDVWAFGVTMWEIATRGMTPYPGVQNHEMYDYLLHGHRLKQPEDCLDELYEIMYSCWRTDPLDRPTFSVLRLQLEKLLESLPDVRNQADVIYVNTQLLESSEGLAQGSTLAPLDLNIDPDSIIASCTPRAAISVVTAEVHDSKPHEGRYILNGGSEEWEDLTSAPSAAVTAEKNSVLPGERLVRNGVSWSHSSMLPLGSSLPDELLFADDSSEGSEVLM
Met (phospho-Met, HGF-stimulated PC-3 prostate cancer cells), sequence (P08581 25-1390): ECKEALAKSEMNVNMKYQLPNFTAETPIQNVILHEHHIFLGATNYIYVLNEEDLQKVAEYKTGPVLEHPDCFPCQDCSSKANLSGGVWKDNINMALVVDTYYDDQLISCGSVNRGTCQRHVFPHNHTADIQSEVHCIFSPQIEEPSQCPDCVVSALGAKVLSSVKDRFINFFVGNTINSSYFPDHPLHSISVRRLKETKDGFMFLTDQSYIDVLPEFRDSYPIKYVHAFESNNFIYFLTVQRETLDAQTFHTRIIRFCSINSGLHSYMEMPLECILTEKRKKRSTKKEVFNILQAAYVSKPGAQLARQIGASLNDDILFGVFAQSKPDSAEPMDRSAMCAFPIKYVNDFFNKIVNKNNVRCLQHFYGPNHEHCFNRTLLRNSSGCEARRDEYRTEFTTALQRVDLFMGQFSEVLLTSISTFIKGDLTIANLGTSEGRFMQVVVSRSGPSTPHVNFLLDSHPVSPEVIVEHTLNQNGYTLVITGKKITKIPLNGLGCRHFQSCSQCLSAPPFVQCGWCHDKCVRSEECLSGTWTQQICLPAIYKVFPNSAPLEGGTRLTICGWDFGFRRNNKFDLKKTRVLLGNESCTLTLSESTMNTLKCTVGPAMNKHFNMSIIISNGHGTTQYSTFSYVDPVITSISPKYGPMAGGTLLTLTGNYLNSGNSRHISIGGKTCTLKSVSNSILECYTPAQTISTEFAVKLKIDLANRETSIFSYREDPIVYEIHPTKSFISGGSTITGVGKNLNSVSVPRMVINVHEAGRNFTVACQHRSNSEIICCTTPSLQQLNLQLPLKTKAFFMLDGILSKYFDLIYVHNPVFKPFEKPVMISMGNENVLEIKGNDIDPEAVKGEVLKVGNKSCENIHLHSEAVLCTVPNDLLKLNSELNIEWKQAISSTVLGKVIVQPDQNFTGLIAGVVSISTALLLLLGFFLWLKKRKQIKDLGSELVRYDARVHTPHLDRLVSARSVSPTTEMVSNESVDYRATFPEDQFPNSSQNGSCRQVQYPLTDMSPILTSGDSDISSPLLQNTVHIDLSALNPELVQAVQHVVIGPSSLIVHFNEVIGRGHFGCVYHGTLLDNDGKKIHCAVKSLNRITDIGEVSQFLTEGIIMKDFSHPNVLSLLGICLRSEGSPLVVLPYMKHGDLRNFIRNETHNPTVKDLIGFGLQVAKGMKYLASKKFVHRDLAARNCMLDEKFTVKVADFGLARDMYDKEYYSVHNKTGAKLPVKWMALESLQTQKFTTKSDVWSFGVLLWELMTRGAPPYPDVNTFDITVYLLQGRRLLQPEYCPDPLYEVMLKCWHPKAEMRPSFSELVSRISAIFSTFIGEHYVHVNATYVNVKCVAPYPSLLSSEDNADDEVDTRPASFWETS

## COc1cc2nccc(Oc3ccc(NC(=O)c4c(C)nc(C)c(-c5ccc(F)c(C)c5)c4O)cc3F)c2nc1OC [Compound 710, N-[4-[(6,7-dimethoxy-1,5-naphthyridin-4-yl)oxy]-3-fluorophenyl]-5-(4-fluoro-3-methylphenyl)-4-hydroxy-2,6-dimethylpyridine-3-carboxamide]
[1]; [4]
  IC50: < 100 nM
[2]; [5]
  IC50: < 100 nM
[3]; [6]
  IC50: < 100 nM

## COc1cc2nccc(Oc3ccc(NC(=O)c4cnc(C)c(-c5ccc(F)cc5)n4)cc3F)c2nc1OC [Compound 764, N-[4-[(6,7-dimethoxy-1,5-naphthyridin-4-yl)oxy]-3-fluorophenyl]-6-(4-fluorophenyl)-5-methylpyrazine-2-carboxamide]
[1]; [4]
  IC50: < 100 nM
[2]; [5]
  IC50: > 300 nM
[3]; [6]
  IC50: < 100 nM

## COc1cc2nccc(Oc3ccc(NC(=O)c4cc(C(C)=O)c(C)n(-c5ccc(F)cc5C)c4=O)cc3F)c2nc1OC [Compound 720, 5-acetyl-N-[4-[(6,7-dimethoxy-1,5-naphthyridin-4-yl)oxy]-3-fluorophenyl]-1-(4-fluoro-2-methylphenyl)-6-methyl-2-oxopyridine-3-carboxamide]
[1]; [4]
  IC50: < 100 nM
[2]; [5]
  IC50: > 300 nM
[3]; [6]
  IC50: < 100 nM

## COc1cc2nccc(Oc3ccc(NC(=O)c4c(C)n(C)c(C)c(-c5ccc(F)cc5F)c4=O)cc3F)c2nc1OC [Compound 823, 5-(2,4-difluorophenyl)-N-[4-[(6,7-dimethoxy-1,5-naphthyridin-4-yl)oxy]-3-fluorophenyl]-1,2,6-trimethyl-4-oxopyridine-3-carboxamide]
[1]; PC-3 cells
  IC50: < 100 nM
[2]; HUVEC cells
  IC50: > 300 nM
[3]; transfected 293A cells
  IC50: < 100 nM

## CCOc1ccn(-c2ccc(F)cc2)c(=O)c1C(=O)Nc1ccc(Oc2ccnc3cc(OC)cnc23)c(F)c1 [Compound 716, 4-ethoxy-N-[3-fluoro-4-[(7-methoxy-1,5-naphthyridin-4-yl)oxy]phenyl]-1-(4-fluorophenyl)-2-oxopyridine-3-carboxamide]
[1]; [4]
  IC50: < 100 nM
[2]; [5]
  IC50: > 300 nM
[3]; [6]
  IC50: < 100 nM

## CCOc1ccn(-c2ccc(F)cc2)c(=O)c1C(=O)Nc1ccc(Oc2ccnc3cc(OC)c(OC)nc23)cc1 [Compound 718, N-[4-[(6,7-dimethoxy-1,5-naphthyridin-4-yl)oxy]phenyl]-4-ethoxy-1-(4-fluorophenyl)-2-oxopyridine-3-carboxamide]
[1]; [4]
  IC50: < 100 nM
[2]; [5]
  IC50: 100 to 300 nM
[3]; [6]
  IC50: < 100 nM

## COc1cnc2c(Oc3c(F)cc(NC(=O)c4c(C)nc(C)c(-c5ccc(F)cc5C)c4O)c(F)c3F)ccnc2c1 [Compound 768, 5-(4-fluoro-2-methylphenyl)-4-hydroxy-2,6-dimethyl-N-[2,3,5-trifluoro-4-[(7-methoxy-1,5-naphthyridin-4-yl)oxy]phenyl]pyridine-3-carboxamide]
[1]; [4]
  IC50: < 100 nM
[2]; [5]
  IC50: < 100 nM
[3]; [6]
  IC50: < 100 nM

## COc1cnc2c(Oc3ccc(NC(=O)c4c(C)ncc(-c5ccc(F)cc5C)c4O)cc3F)ccnc2c1 [Compound 719, N-[3-fluoro-4-[(7-methoxy-1,5-naphthyridin-4-yl)oxy]phenyl]-5-(4-fluoro-2-methylphenyl)-4-hydroxy-2-methylpyridine-3-carboxamide]
[1]; [4]
  IC50: < 100 nM
[2]; [5]
  IC50: < 100 nM
[3]; [6]
  IC50: < 100 nM

## COc1cnc2c(Oc3ccc(NC(=O)c4c(C)n(C)c(C)c(-c5ccc(F)cc5F)c4=O)cc3F)ccnc2c1 [Compound 824, 5-(2,4-difluorophenyl)-N-[3-fluoro-4-[(7-methoxy-1,5-naphthyridin-4-yl)oxy]phenyl]-1,2,6-trimethyl-4-oxopyridine-3-carboxamide]
[1]; PC-3 cells
  IC50: < 100 nM
[2]; HUVEC cells
  IC50: > 300 nM
[3]; transfected 293A cells
  IC50: < 100 nM

## COc1cc2nccc(Oc3ccc(NC(=O)c4c(C)n(C)c(C)c(-c5ccc(F)cc5C)c4=O)cc3)c2nc1OC [Compound 791, N-[4-[(6,7-dimethoxy-1,5-naphthyridin-4-yl)oxy]phenyl]-5-(4-fluoro-2-methylphenyl)-1,2,6-trimethyl-4-oxopyridine-3-carboxamide]
[1]; [4]
  IC50: < 100 nM
[2]; [5]
  IC50: > 300 nM
[3]; [6]
  IC50: < 100 nM

## COc1cc2nccc(Oc3ccc(NC(=O)c4c(C)nc(C)c(-c5ccc(C(C)C)cc5)c4O)cc3F)c2nc1OC [Compound 711, N-[4-[(6,7-dimethoxy-1,5-naphthyridin-4-yl)oxy]-3-fluorophenyl]-4-hydroxy-2,6-dimethyl-5-(4-propan-2-ylphenyl)pyridine-3-carboxamide]
[1]; [4]
  IC50: < 100 nM
[2]; [5]
  IC50: < 100 nM
[3]; [6]
  IC50: < 100 nM

## COc1cc2nccc(Oc3ccc(NC(=O)c4c(C)n(CC(F)(F)F)cc(-c5ccc(F)cc5C)c4=O)cc3F)c2nc1OC [Compound 802, N-[4-[(6,7-dimethoxy-1,5-naphthyridin-4-yl)oxy]-3-fluorophenyl]-5-(4-fluoro-2-methylphenyl)-2-methyl-4-oxo-1 (2,2,2-trifluoroethyl)pyridine-3-carboxamide]
[1]; PC-3 cells
  IC50: < 100 nM
[3]; transfected 293A cells
  IC50: < 100 nM

## COc1cc2nccc(Oc3ccc(NC(=O)c4cc(C(C)O)c(C)n(-c5ccc(F)cc5)c4=O)cc3F)c2nc1OC (stereo not drawn) [Compound 787, N-[4-[(6,7-dimethoxy-1,5-naphthyridin-4-yl)oxy]-3-fluorophenyl]-1-(4-fluorophenyl)-5-(1-hydroxyethyl)-6-methyl-2-oxopyridine-3-carboxamide]
[1]; [4]
  IC50: < 100 nM
[2]; [5]
  IC50: > 300 nM
[3]; [6]
  IC50: < 100 nM

## COc1ccc(-c2c(C)nc(C)c(C(=O)Nc3ccc(Oc4ccnc5cc(OC)c(OC)nc45)c(F)c3)c2O)c(OC)c1 [Compound 713, N-[4-[(6,7-dimethoxy-1,5-naphthyridin-4-yl)oxy]-3-fluorophenyl]-5-(2,4-dimethoxyphenyl)-4-hydroxy-2,6-dimethylpyridine-3-carboxamide]
[1]; [4]
  IC50: < 100 nM
[3]; [6]
  IC50: < 100 nM

## COc1cc2c(Oc3ccc(NC(=O)c4nc(C)c(C)n(-c5ccc(F)cc5)c4=O)cc3F)ccnc2cn1 [Compound 714, N-[3-fluoro-4-[(6-methoxy-1,7-naphthyridin-4-yl)oxy]phenyl]-4-(4-fluorophenyl)-5,6-dimethyl-3-oxopyrazine-2-carboxamide]
[1]; [4]
  IC50: < 100 nM
[3]; [6]
  IC50: < 100 nM
